Converted amounts (≈) assume the structure as drawn.
Tests used:
[1] = Solubilities of clonazepam in solvent/water solutions (glycol ether + pH6.8 buffered water, 25° C.); format: physicochemical; details: Di (ethyleneglycol) diethyl ether, 20% solvent / 80% pH6.8 buffered water
Method: The vials were stored at 25° C. for approximately 1 day. Prior to sampling, the vials were centrifuged at 5000 rpm for 2 minutes at 23° C. The results are shown below; neat solvent solubilities from Example 11 are included for reference. Increased water content decreases solubility substantially.

[2] = qEEG mapping; format: in vivo; details: human
Method: E. Electroencephalography (EEG) Methods: Drug and placebo are administered, for example, at a five-minute intravenous (i.v.) infusion. During 15 minutes following the beginning of the administration EEG is registered. The EEG is registered again at 30, 60, 90, 120, and 180 minutes. Subjects are typically in a quiet laboratory (soundproof and electrically shielded room). During acquisition of EEG measurements subjects recline in an armchair. Usually twenty-eight EEG leads (issued, for example, from a 10-20 system; Jasper, H. H., et al., “Studies of clinical and electrical responses to deep temporal stimulation in men with some considerations of functional anatomy,” Res Publ Assoc Res Nerv Ment Dis. 36:316-34 (1958); Japser, H. H., “Progress and problems in brain research,” J Mt Sinai Hosp N Y. 25(3):244-53 (1958)) are used for recording. An ear linked reference, as well as four artifact channels (detection of eye movement, muscle activity, and other potentials for artifacts) may be used. Silver-plated disc electrodes are attached to subject's scalp, for example, with quick drying collondion. Impedance (for example, of 2000-5000 ohms) is checked before each recording session. A calibration signal is used, before each subject is tested, in order to adjust all the recorded leads thus allowing the construction of EEG or event-related-potentials (ERP) maps. EEGs are taken under resting recording conditions (i.e., subjects are asked to relax with their eyes closed). An example of data analysis used is the method of Dago, et al. (Dago, K T, et al., “Statistical Decision Tree: a tool for studying pharmaco-EEG effects of CNS-active drugs,” Neuropsychobiology, 29(2):91-6 (1994)) which involves a statistical comparison of data obtained during active treatment versus placebo treatment. Typically, topographic mapping of mean EEG parameters and statistical evaluation of treatment effects is carried out in a selected number of healthy volunteers.
EEG profiles are determined for patients dosed intranasally with clonazepam compositions of the present invention. […]

[3] = Solubilities of clonazepam in glycol ethers at 3 temperatures
Method: The vials were then centrifuged at −5° C. and 5° C. for the −15° C. and 5° C. samples, respectively, at 5000 rpm for 2 minutes.

[4] = Solubility of clonazepam in binary mixtures of matrices; details: binary mixture with glycofurol, inferred from FIG. 2
Method: Further, the solubility of clonazepam in binary mixtures of Transcutol® (TC), triacetin (TA), glycofurol (GF) and propylene glycol (PG) was evaluated. Solubility limits of clonazepam were determined for the following formulations:
Excess drug (50 mg) was capped with about 500 μL of the solvent matrix in a 1.5 mL microfuge tube and the solution was mixed on a vortex shaker for several minutes. Thereafter, the solution was placed in an ultrasonic bath at 25° C. for 45 minutes. The temperature was regulated with a thermometer and controlled by adding ice into the bath. After 15 minutes of standing, the solutions were centrifuged at 3,000×g for 30 minutes. Solutions were then stored for 16 hours at 25° C. in an ICH cabinet and protected from light.

[5] = Human pharmacokinetic, safety and tolerability study (oral, intravenous, intranasal cross-over)
Method: The human pharmacokinetics, safety, and tolerability of the clonazepam compositions of the present invention formulated for intranasal delivery for therapeutic applications are evaluated using standard clinical procedures. Clonazepam compositions formulated for intranasal delivery are provided, for example, for application by the participants to intranasal mucosa.
A primary objective of initial studies in humans is to determine and compare pharmacokinetic profiles of three dosage forms of clonazepam: oral, i.v., and intranasal, following single administration. An example of such a study in humans is a cross-over study performed in 12 healthy male volunteers. Plasma and urine level of clonazepam and 7-amino-clonazepam are determined, for example, using HPLC and UV detection. […] Further the initial studies in humans are used to determine local tolerability of intranasal formulation using questionnaire and the Visual Analog Scale (VAS). VAS is a validated instrument that has been used in numerous studies to quantify subjective opening of the nasal passages. In addition, cognitive, sleepiness and mood effects are evaluated using questionnaires and scales (see, e.g., Example 10 below). Further, attention and vigilance may be evaluated using, for example, LEEDS Psychomotor Multiple Choice Reaction Time (MCRT) testing.
A human pharmacokinetic study was carried out as described in Example 8.
15 young, healthy male volunteers received a single dose of 1 mg clonazepam by oral, intravenous and intranasal routes in a three-period cross-over design.

[6] = Solubility of clonazepam in neat solvents; details: neat PEG 300
Method: The solubility of clonazepam in a number of neat solvents was determined using standard methods.

[7] = oral; cited from earlier work
[8] = In vitro permeation across sheep nasal mucosa, Franz cells; details: saturated solution, Franz cell, 7 h, FIG. 1
Method: Freshly excised sheep nasal mucosa was used and prepared following a standard protocol. The excised sheep nasal mucosa was cleaned by rinsing with de-ionized water and either used fresh or placed flat over a filter paper and stored frozen until used.
(ii) Dosing and Sample Collection—Franz cell studies: Individually calibrated Franz cells with an average surface area and volume of approximately 0.6 cm^2 and 2 mL, respectively, were employed to determine the permeation characteristics of drug. The nasal sheep mucosa was mounted between the two halves of the Franz cell with the mucosal side facing the donor compartment. The receptor compartment was filled with receiver fluid, stirred constantly with a PTFE-coated magnetic follower driven by a submersible magnetic stirrer bed and maintained at 37° C. in a water bath. Approximately 1 mL (infinite dose) of saturated drug solution was placed into the donor compartment and covered with […] ® (Pechiney Plastic Packaging, Inc., Chicago, Ill.) throughout the study. Following the application of the drug solution, the receiver fluid (200 μL) was removed from the receptor compartment via the sampling arm after sampling times (t=1, 2, 3, 4, 5, 6 and 7 h) and analyzed via HPLC. Each sample removed was replaced by an equal volume of fresh pre-warmed (37° C.) receiver fluid. […]

O=C1CN=C(c2ccccc2Cl)c2cc([N+](=O)[O-])ccc2N1 [Clonazepam, 5-(2-chlorophenyl)-1,3-dihydro-7-nitro-2H-1,4-benzodiazepin-2-one]
Solubilities (mg/mL) of Clonazepam in Solvent/Water Solutions [1]: 0.31 mg/mL
EEG changes from baseline ([2]; all three routes): increased delta and beta activity and decreased alpha and theta activity
beta-1 relative power, time course of effects (post-hoc analysis) ([2]; intranasal administration): magnitude of effect similar to that from oral administration
time after dosing at which the EEG pattern was noted ([2]; oral administration): approximately 2 hours
Solubility ([3]; in 1,2-dimethyxoethane, 5 C.): 35.7 mg/mL (≈ 113 mM)
Solubility ([3]; in 1,2-dimethyxoethane, −15 C.): 35.2 mg/mL (≈ 111 mM)
Solubility ([3]; in Di (ethylene glycol) methyl ether, 5 C.): 53.9 mg/mL (≈ 171 mM)
Solubility ([3]; in Di (ethylene glycol) methyl ether, −15 C.): 58.1 mg/mL (≈ 184 mM)
Solubility ([3]; in Di (ethyleneglycol) diethyl ether, 5 C.): 18.5 mg/mL (≈ 58.6 mM)
Solubility ([3]; in Di (ethyleneglycol) diethyl ether, −15 C.): 19.5 mg/mL (≈ 61.8 mM)
Solubility ([3]; in Diethylene glycol monoethyl ether, 5 C.): 37.7 mg/mL (≈ 119 mM)
Solubility ([3]; in Diethylene glycol monoethyl ether, −15 C.): 43.3 mg/mL (≈ 137 mM)
solubility in the 50:50 mixture [4]: about 36.4 mg/mL
Cmax of the intranasal route as % of that of the intravenous route ([5]; 1 mg): 17%
Cmax of the intranasal route as % of that of the oral route ([5]; 1 mg): 93%
median Tmax ([5]; 1 mg single dose, intravenous, 15 volunteers): 6 min
mean Cmax (mean ±SD) ([5]; 1 mg, intranasal route): 7.12 ± 3.81 ng/mL
mean Cmax (mean ±SD) ([5]; 1 mg, intravenous route): 42.5±10.8
mean Cmax (mean ±SD) ([5]; 1 mg, oral route): 7.64 ± 1.74 ng/mL
subjects reporting somnolence ([5]; after intranasal dosing, 10 of 15): approximately 67%
subjects reporting nasal discomfort ([5]; after intranasal dosing, 12 of 15): approximately 80%
subjects reporting sedation ([5]; after intravenous dosing): 3/15
subjects reporting somnolence ([5]; after intravenous dosing): 11/15
subjects reporting somnolence or sedation ([5]; after intravenous dosing): Approximately 93%
subjects reporting somnolence ([5]; after oral dosing, 13 of 15): approximately 87%
Solubility [6]: 37.0 mg/mL (≈ 117 mM)
time of maximum blood concentrations [7]: one to two
permeation across sheep nasal mucosa [8]: at steady state

Source: US8716279B2, “Pharmaceutical compositions of clonazepam and method of use thereof” (Jazz Pharmaceuticals, Inc., priority 2006, dated 2014)
